This passage reports GI50 and TGI results from PubChem BioAssay (NCI).

Some test systems named below: NCI-H460 lung; OVCAR-5 ovarian; U251 CNS; SF-539 CNS; SNB-75 CNS; NCI/ADR-RES ovarian; HOP-62 NSCLC; BT-549 breast; SK-MEL-2 melanoma; HCT-116 colon.
Common to all, as to experiment: DTP human tumour cell line panel, 48 h

SMILES strings stand for the structures. “And” between values parts separate entries of the source, which are not always exact repeats. Equal entries are not always repeated.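 Results reflect a 48-hour exposure of cells in 96-well plates to compound at five concentrations. GI50 marks 50% less growth. TGI marks complete inhibition of growth.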

On to `Cc1cc(C2=NNC(=O)Cc3cc4c(cc32)OCCO4)cc(C)c1N`, for which the GI50 was 2.64 µM in the test with NCI-H460 lung; 8.02 µM with OVCAR-5 ovarian; 3.22 µM with U251 CNS; 2.73 µM in the test on SF-539 CNS; 1.25 µM in the test with SNB-75 CNS; 0.882 µM in the test on NCI/ADR-RES ovarian. Further, the GI50 with HOP-62 NSCLC was 2.72 µM; in the test with BT-549 breast, 3.36 µM; with SK-MEL-2 melanoma, 3.42 µM; in the test on HCT-116 colon, 2.35 µM. Moreover, the TGI was above 100 µM with NCI-H460 lung; above 100 µM in the test on OVCAR-5 ovarian; above 100 µM in the test on U251 CNS; 8.91 µM in the test with SF-539 CNS; 4.32 µM in the test on SNB-75 CNS; 25.8 µM in the test on NCI/ADR-RES ovarian. The TGI in the test with HOP-62 NSCLC, in the test with BT-549 breast, in the test with SK-MEL-2 melanoma and with HCT-116 colon was above 100 µM in each case.
As to `O=C(CCCN1CCOCC1)Nc1ccc(Cn2nnc3c2C(=O)c2nnn(Cc4ccc(NC(=O)CCCN5CCOCC5)cc4)c2C3=O)cc1`, the GI50 in the test on NCI-H460 lung is 2.07 µM; in the test on OVCAR-5 ovarian it was above 100 µM; with U251 CNS, 1.95 µM; in the test on SF-539 CNS it was 2.17 µM; in the test with SNB-75 CNS it was 1.83 µM; in the test with NCI/ADR-RES ovarian it was above 100 µM. Besides, the GI50 in the test with HOP-62 NSCLC was above 100 µM; in the test on BT-549 breast, 4.68 µM; in the test with SK-MEL-2 melanoma, 2.04 µM; with HCT-116 colon it was 3 µM. Also, the TGI is above 100 µM with NCI-H460 lung; above 100 µM with OVCAR-5 ovarian; 3.74 µM in the test on U251 CNS; 4.71 µM in the test with SF-539 CNS; 3.24 µM with SNB-75 CNS; above 100 µM in the test with NCI/ADR-RES ovarian. Besides, the TGI with HOP-62 NSCLC was above 100 µM; in the test on BT-549 breast it was 18.4 µM; in the test on SK-MEL-2 melanoma, 4.15 µM; in the test with HCT-116 colon, 11.3 µM.
As to `CN(C)c1ncnc2c1nnn2C1OC(CO)C(O)C1O` (stereo not drawn), the GI50 is 0.247 µM in the test with NCI-H460 lung; 2.97 µM in the test on OVCAR-5 ovarian; 1.6 µM with U251 CNS; 0.503 µM in the test with SF-539 CNS; 0.106 µM in the test on SNB-75 CNS; 0.233 µM with NCI/ADR-RES ovarian. In addition, the 50% growth inhibitory concentration (GI50) in the test with HOP-62 NSCLC was 0.405 µM; in the test on BT-549 breast, 1.09 µM; in the test on SK-MEL-2 melanoma, 0.104 µM; with HCT-116 colon it was 0.431 µM. The TGI is above 100 µM in the test on NCI-H460 lung; above 100 µM in the test on OVCAR-5 ovarian; above 100 µM with U251 CNS; above 90.6 µM with SF-539 CNS; above 100 µM in the test on SNB-75 CNS; above 100 µM with NCI/ADR-RES ovarian. The TGI in the test with HOP-62 NSCLC was above 100 µM; in the test on BT-549 breast, above 100 µM; in the test with SK-MEL-2 melanoma, 0.773 µM; in the test on HCT-116 colon it was above 100 µM.
Turning to `CN(C)c1ccc(/C=C(\C#N)c2nc3ccccc3n2C)cc1`, the GI50 was 3.2 µM in the test on NCI-H460 lung; 8.49 µM in the test with OVCAR-5 ovarian; 3.72 µM in the test with U251 CNS; 2.24 µM in the test with SF-539 CNS; 2.54 µM with SNB-75 CNS; 1.47 µM in the test on NCI/ADR-RES ovarian. Moreover, the GI50 was 13.8 µM in the test on HOP-62 NSCLC, 3.4 µM with BT-549 breast, 3.9 µM with SK-MEL-2 melanoma and 1.41 µM in the test with HCT-116 colon. The TGI in the test with NCI-H460 lung was 17.9 µM; with OVCAR-5 ovarian, 49.8 µM; with U251 CNS, above 100 µM; in the test with SF-539 CNS it was 6.94 µM; with SNB-75 CNS it was above 31.3 µM; with NCI/ADR-RES ovarian, 11.1 µM. Also, the TGI with HOP-62 NSCLC is above 100 µM; with BT-549 breast, 31.2 µM; in the test with SK-MEL-2 melanoma it was 68.5 µM; in the test on HCT-116 colon it was above 100 µM.
On to `CC(=O)OCC(=O)O[C@@H]1C[C@]2(C(C)C)O[C@@]1(C)[C@@H]1CC[C@@H](C)[C@H]1[C@@H]2OC(=O)/C=C/c1ccccc1`, for which the GI50 with NCI-H460 lung is 21.4 µM; with OVCAR-5 ovarian it was 15.5 µM; in the test on U251 CNS, 16.7 µM; in the test on SF-539 CNS, 28.2 µM; with SNB-75 CNS, 13.2 µM; in the test on NCI/ADR-RES ovarian it was 0.143 µM. The GI50 in the test with HOP-62 NSCLC was 17.3 µM; in the test on BT-549 breast, 0.0987 µM; in the test with SK-MEL-2 melanoma, 17.3 µM; in the test on HCT-116 colon, 16.1 µM. Also, the TGI in the test with NCI-H460 lung was 60.1 µM; in the test on OVCAR-5 ovarian, 33.6 µM; in the test with U251 CNS it was 50.3 µM; with SF-539 CNS, above 100 µM; with SNB-75 CNS, 58.4 µM; in the test with NCI/ADR-RES ovarian, 27.5 µM. Also, the TGI in the test with HOP-62 NSCLC was 45.2 µM; in the test on BT-549 breast, 7 µM; with SK-MEL-2 melanoma it was 39.1 µM; in the test with HCT-116 colon, above 100 µM.
In the case of `CN(N=O)C(=O)N[C@@H](C=O)[C@@H](O)[C@H](O)[C@H](O)CO`, the GI50 was above 750 µM in the test on NCI-H460 lung; above 750 µM in the test on OVCAR-5 ovarian; above 750 µM in the test on U251 CNS; above 750 µM in the test on SF-539 CNS; 696 µM in the test on SNB-75 CNS; above 750 µM in the test with HOP-62 NSCLC. Also, the GI50 in the test with SK-MEL-2 melanoma and in the test with HCT-116 colon was above 750 µM each time. The TGI with NCI-H460 lung is above 750 µM; in the test on OVCAR-5 ovarian it was above 750 µM; with U251 CNS, 626 µM and > 750 µM; in the test on SF-539 CNS it was above 750 µM; in the test with SNB-75 CNS, above 750 µM; with NCI/ADR-RES ovarian, above 750 µM. Also, the TGI in the test with HOP-62 NSCLC was above 750 µM; with BT-549 breast it was above 750 µM; in the test with SK-MEL-2 melanoma it was above 750 µM; in the test on HCT-116 colon it was 653 µM and > 750 µM.
With `COC(=O)[C@]12CC[C@@H](C)[C@H](C)[C@@H]1C1=CC[C@@H]3[C@@]4(C)C(C=O)=C[C@@](C)(COC(=O)c5ccco5)[C@@H]4C(=O)C[C@@]3(C)[C@]1(C)CC2`, the GI50 is 3.92 µM with NCI-H460 lung; 68.8 µM in the test with OVCAR-5 ovarian; 4.83 µM in the test with U251 CNS; 23 µM in the test on SF-539 CNS; 4.24 µM with SNB-75 CNS; 4.82 µM in the test with NCI/ADR-RES ovarian. For the same molecule, the GI50 is 18.9 µM in the test on HOP-62 NSCLC, 4.06 µM in the test with BT-549 breast, 0.5 µM in the test with SK-MEL-2 melanoma and 3.68 µM in the test with HCT-116 colon. Besides, the TGI in the test with NCI-H460 lung, with OVCAR-5 ovarian, in the test with U251 CNS, in the test with SF-539 CNS, with SNB-75 CNS and with NCI/ADR-RES ovarian was above 100 µM throughout. In addition, the TGI is above 100 µM in the test with HOP-62 NSCLC, above 100 µM in the test with BT-549 breast, 2.78 µM with SK-MEL-2 melanoma and above 100 µM in the test on HCT-116 colon.
